From patent publication US8507538B2, “Selective heterocyclic sphingosine 1 phosphate receptor modulators” (Receptos, Inc., priority 2009, dated 2013)

What follows are compounds tested against S1P1/EDG1 (Homo sapiens, UniProt P21453) (assay: S1P1 CRE-bla CHOK1 reporter assay (inhibition of Forskolin induced cAMP)). Details: agonist activity range, Table 2; read-out: S1P1 ACTIVITY.
S1P1/EDG1, sequence (P21453 whole entry): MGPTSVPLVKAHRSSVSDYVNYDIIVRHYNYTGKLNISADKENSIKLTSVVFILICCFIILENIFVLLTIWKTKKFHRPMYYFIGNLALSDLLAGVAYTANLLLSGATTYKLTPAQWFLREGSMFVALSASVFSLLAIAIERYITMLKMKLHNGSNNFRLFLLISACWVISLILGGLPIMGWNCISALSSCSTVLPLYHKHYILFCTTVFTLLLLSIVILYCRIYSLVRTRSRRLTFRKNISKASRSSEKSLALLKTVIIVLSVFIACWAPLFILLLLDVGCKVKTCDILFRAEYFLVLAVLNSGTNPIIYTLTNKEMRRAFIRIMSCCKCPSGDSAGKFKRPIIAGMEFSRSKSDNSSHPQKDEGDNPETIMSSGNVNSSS
Format: cell-based
Description: A mammalian expression plasmid containing S1P1/EDG1 cloned into pcDNA3.1 was purchased from Missouri S&T cDNA Resource Centre. The nucleotide and amino acid sequence of human S1P1/EDG1 are published in Hla and Maciag (J Biol Chem, 265(1990), 9308-9313). S1P1/pcDNA3.1 was transfected into the CRE-bla CHO K1 (Invitrogen) cell line, and stable single cell clones were selected using standard techniques. Expression of functional SIP1/EDG1 receptor was confirmed by cell surface FACS with a S1P1 antibody (R&D Systems, clone 218713) and S1P-mediated inhibition of Forskolin induced cAMP.
Cells were seeded into 384-well black wall/clear bottom plates at 10^4 cells/well/19.5 μl assay media (DMEM-phenol free, 0.5% charcoal/dextran stripped serum, 2 mM glutamine, 0.1 mM NEAA, 1 mM Na-Pyruvate, 25 mM Hepes) and incubated for 18 hrs at 37° C. in 5% CO2. Dose response curves (10-point) were generated in 10 mM Hepes, 0.1% Pluronic F127, in the presence of Forskolin. Cells were treated with 0.5 μl compound in the presence of 2 μM Forskolin for 4 hrs at 37° C. The FRET-based β-lactamase fluorescent substrate (LiveBLAzer™ FRET B/G Loading Kit CC4-AM; Invitrogen) was prepared according to manufacturer's directions, and incubated with cells for 2 hrs at room temperature. Plates were read at Ex:410/Em:458 and Ex:410/Em:522, and the response ratio determined. Data was analyzed by non-linear regression to determine the EC50 for inhibition of Forskolin induced cAMP.
Compound `CC(C)Oc1ccc(-c2nnc(-c3cccc4c3CC[C@@H]4NC(=O)N3CCC[C@H](O)C3)s2)cc1C#N` [Compound 61] has an EC50 of 0.05 to 0.5 nM.
With `CC(C)Oc1ccc(-c2ncc(-c3cccc4c3CC[C@@H]4NC(=O)N3CCOCC3)s2)cc1C#N` [Compound 187] the EC50 was 0.5 to 5 nM.
Work on `COC(=O)N[C@H]1CCc2c(-c3nnc(-c4ccc(OC(C)C)c(C#N)c4)s3)cccc21` [Compound 68] yielded an EC50 of 0.05 to 0.5 nM.
`CC(C)Oc1ccc(-c2ncc(-c3cccc4c3CCC4N3CCNCC3)s2)cc1C#N` (stereo not shown) [Compound 215] was tested, and the EC50 was 0.5 to 5 nM.
With `CC(C)Oc1ccc(-c2ncc(-c3cccc4c3CC[C@@H]4NCc3ncc[nH]3)s2)cc1C#N` [Compound 110, (S)-5-(5-(1-(((1H-imidazol-2-yl)methyl)amino)-2,3-dihydro-1H-inden-4-yl)thiazol-2-yl)-2-isopropoxybenzonitrile] the EC50 was 0.5 to 5 nM.
`CC(C)Oc1ccc(-c2nnc(-c3cccc4c3CC[C@@H]4NS(=O)(=O)CC(=O)O)s2)cc1C#N` [Compound 40, (S)-2-(N-(4-(5-(3-cyano-4-isopropoxyphenyl)-1,3,4-thiadiazol-2-yl)-2,3-dihydro-1H-inden-1-yl)sulfamoyl)acetic acid] gave an EC50 of 0.05 to 0.5 nM.
`CC(C)Oc1ccc(-c2nnc(-c3cccc4c3CCC4NS(N)(=O)=O)s2)cc1C#N` (stereo in doubt) [Compound 48, (R)-N-(4-(5-(3-cyano-4-isopropoxyphenyl)-1,3,4-thiadiazol-2-yl)-2,3-dihydro-1H-inden-1-yl)sulfamide] showed an EC50 of under 0.05 nM.
With `CC(C)Oc1ccc(-c2ncc(-c3cccc4c3CC[C@@H]4N3CCC3)s2)cc1C#N` [Compound 206] the EC50 was 0.05 to 0.5 nM.
`CC(C)Oc1ccc(-c2ncc(-c3cccc4c3CCC4NC3CCOCC3)s2)cc1C#N` (stereo not shown) [Compound 217] was tested, and the EC50 was over 5 nM.
With `CC(C)Oc1ccc(-c2nnc(-c3cccc4c3CC[C@@H]4NC(=O)N3CCCC3)s2)cc1C#N` [Compound 53] the EC50 was 0.5 to 5 nM.
`COCC(=O)N[C@@H]1CCc2c(-c3nnc(-c4ccc(OC(C)C)c(C#N)c4)s3)cccc21` [Compound 11] was tested, and the EC50 was 0.05 to 0.5 nM.
Compound `CC(C)Oc1ccc(-c2nnc(-c3cccc4c3CC[C@@H]4NCC(=O)N3CCCC3)s2)cc1C#N` [Compound 23] has an EC50 of 0.5 to 5 nM.
`CC(C)Oc1ccc(-c2ncc(-c3cccc4c3CC[C@@H]4NS(=O)(=O)CCN3CC[C@H](N(C)C)C3)s2)cc1C#N` [Compound 137] was tested, and the EC50 was over 5 nM.
`CC(C)Oc1ccc(-c2ncc(-c3cccc4c3CC[C@@H]4NC(=O)N3CC[C@H](N(C)C)C3)s2)cc1C#N` [Compound 182] showed an EC50 of 0.5 to 5 nM.
With `CC(C)Oc1ccc(-c2ncc(-c3cccc4c3CCC4N3CC[C@H](O)C3)s2)cc1C#N` (stereo partly shown) [Compound 210] the EC50 was 0.5 to 5 nM.
With `CC(C)Oc1ccc(-c2ncc(-c3cccc4c3CC[C@@H]4NC(=O)N3CC(O)C3)s2)cc1C#N` [Compound 170] the EC50 was 0.5 to 5 nM.
`CC(C)Oc1ccc(-c2nnc(-c3cccc4c3CC[C@@H]4NCCO)s2)cc1C#N` [Compound 18, (S)-5-(5-(1-((2-hydroxyethyl)amino)-2,3 dihydro-1H-inden-4-yl)-1,3,4-thiadiazol-2-yl)-2-isopropoxy-benzonitrile] was tested, and the EC50 was 0.5 to 5 nM.
`CC(C)Oc1ccc(-c2ncc(-c3cccc4c3CCC4N3CC[C@@H](O)C3)s2)cc1C#N` (stereo partly shown) [Compound 209] gave an EC50 of 0.5 to 5 nM.
In the case of `CC(C)Oc1ccc(-c2cc(-c3cccc4c3CCC4O)cs2)cc1C#N` (stereo not shown) [Compound 226, 5-(4-(1-hydroxy-2,3-dihydro-1H-inden-4-yl)thiophen-2-yl)-2-isopropoxybenzonitrile], the EC50 is reported as 0.5 to 5 nM.
`CC(C)Oc1ccc(-c2ncc(-c3cccc4c3CC[C@@H]4NS(=O)(=O)CCN3CCC(CC(=O)O)CC3)s2)cc1C#N` [Compound 148] showed an EC50 of 0.5 to 5 nM.
Compound `CC(C)Oc1ccc(-c2ncc(-c3cccc4c3CC[C@@H]4NCCO)s2)cc1C#N` [Compound 92, (S)-5-(5-(1-((2-hydroxyethyl)amino)-2,3-dihydro-1H-inden-4-yl)thiazol-2-yl)-2-isopropoxybenzonitrile] has an EC50 of 0.5 to 5 nM.
`CC(C)Oc1ccc(-c2ncc(-c3cccc4c3CC[C@@H]4NC(=O)N(C)C)s2)cc1C#N` [Compound 168] was tested, and the EC50 was 0.05 to 0.5 nM.
